One compound from paper PMC5808360, “Neutral Porphyrin Derivative Exerts Anticancer Activity by Targeting Cellular Topoisomerase I (Top1) and Promotes Apoptotic Cell Death without Stabilizing Top1-DNA Cleavage Complexes” (Journal of Medicinal Chemistry, 2017) can be followed below.

One may read the inhibition as the change of the read-out against control, counted positive when it falls.

Assay [1] deals with T1, recombinant Top1 (Homo sapiens, UniProt P11387).
T1 construct: made in house; host or cells: Sf-9 insect cells (recombinant baculovirus, gift of Prof. James J. Champoux)
T1 sequence (P11387 1-765): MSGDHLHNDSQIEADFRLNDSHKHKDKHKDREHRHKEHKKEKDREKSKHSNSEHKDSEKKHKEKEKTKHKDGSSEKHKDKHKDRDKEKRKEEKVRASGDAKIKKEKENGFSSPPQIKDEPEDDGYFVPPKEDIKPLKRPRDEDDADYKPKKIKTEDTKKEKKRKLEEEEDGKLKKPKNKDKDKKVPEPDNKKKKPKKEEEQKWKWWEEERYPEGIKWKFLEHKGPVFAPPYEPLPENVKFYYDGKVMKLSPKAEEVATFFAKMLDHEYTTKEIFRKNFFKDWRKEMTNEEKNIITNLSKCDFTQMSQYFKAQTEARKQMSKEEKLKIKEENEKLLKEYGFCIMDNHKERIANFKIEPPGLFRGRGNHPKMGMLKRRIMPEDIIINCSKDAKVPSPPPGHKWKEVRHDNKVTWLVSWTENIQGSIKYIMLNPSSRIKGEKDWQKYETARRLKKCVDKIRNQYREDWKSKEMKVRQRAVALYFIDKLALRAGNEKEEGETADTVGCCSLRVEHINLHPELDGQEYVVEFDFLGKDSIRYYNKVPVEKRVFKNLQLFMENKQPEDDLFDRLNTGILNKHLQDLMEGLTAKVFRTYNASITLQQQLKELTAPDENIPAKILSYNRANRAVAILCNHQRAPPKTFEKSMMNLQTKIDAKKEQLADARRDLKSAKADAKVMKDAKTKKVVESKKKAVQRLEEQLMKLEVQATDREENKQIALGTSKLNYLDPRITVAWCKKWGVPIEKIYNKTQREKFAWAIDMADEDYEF
The experiment in a line: Plasmid DNA relaxation assay with recombinant human Top1. To be noted: 1 μM compound, preincubated with Top1 before addition of DNA. Type of assay: biochemical. The text has this:
To test the inhibitory effect of the synthetic library of neutral porphyrin compounds (Scheme 1) on human Top1 activity, we performed the DNA relaxation assays in a standard assay mixture containing the plasmid DNA and recombinant Top1.[6],[13],[36],[37]Table 1 enlists the compounds with relative efficiencies of Top1 inhibition as a measure of their effective drug concentrations (EC50 value), indicating the highest activity for the selected neutral porphyrin derivative compound 8.
To examine the mechanism of Top1 inhibition with compound 8, we used variable incubation conditions in the relaxation assays (Figure 1A). […] Next, to test the impact of compound 8 interaction with Top1 in the relaxation assays, we preincubated Top1 with compound 8 at indicated concentrations (Figure 1A, lanes 5–8) separately before the addition of DNA.[6],[13],[36],[38]
The recombinant human Top1 was purified from Sf-9 insect cells, infected with the recombinant baculovirus (a kind gift from Prof. James. J. Champoux) as described previously.[6],[13]
The type 1 DNA topoisomerase is assayed by decreased mobility of the relaxed isomers of supercoiled pBS (SK^+) DNA in 1% agarose gel. […]

Assay [2] addresses T2, Top1-DNA cleavage complexes (Top1cc) (Homo sapiens, UniProt P11387).
T2 construct: made in house; host or cells: Sf-9 insect cells (recombinant baculovirus, gift of Prof. James J. Champoux)
T2 sequence (P11387 1-765): T1 sequence (P11387 1-765)
The experiment in a line: Plasmid DNA cleavage assay (Top1cc formation). It counts as biochemical. As for the experimental part: Because camptothecin (CPT) stabilizes Top1-DNA cleavable complexes (Top1cc) to inhibit Top1 activity,[3],[5],[37] we investigated compound 8 induced Top1cc formation with the plasmid DNA cleavage assays.[6],[8],[36],[37] Top1 mediated conversion of closed circular DNA (form I) to nicked circular DNA (form II) in the presence of specific inhibitors is referred to as “cleavable complex”. […] To further investigate the impact of compound 8 on preformed Top1cc, we preincubated Top1 with plasmid DNA and CPT (Figure 2B) before the addition of compound 8 in the cleavage assays.
Plasmid DNA cleavage assay was carried out as described previously.[6],[8] For equilibrium cleavage assays, 25-mer duplex of oligonucleotide containing a Top1 binding motif was labeled and annealed as described previously.[13],[36],[38] Samples were analyzed by 12% sequencing gel electrophoresis, dried, and exposed on PhosphorImager screens and imaged with Typhoon FLA 7000 (GE Healthcare, U.K.).

Assay [3] concerns PARP1 cleavage in MCF7 cells. The experiment in a line: Western blot of PARP1 cleavage in treated MCF7 cells. Type of assay: cell-based, human. To be noted: 10 μM, 12 h. The method, then:
Preparation of whole cell extracts from MCF7 cells and immunoblotting were carried out as described.[6],[40],[41] Immunoreactivity was detected using ECL chemiluminescence reaction (Amersham) under ChemiDoc MP system (Bio-Rad, USA).
For orientation: In western blotting, separated proteins are transferred to a membrane and probed.

SMILES strings stand for the structures.

In the case of `CN(C)c1ccc(-c2c3nc(c(-c4ccc(N(C)C)cc4)c4ccc([nH]4)c(-c4ccc(C(=O)O)cc4)c4nc(c(-c5ccc(C(=O)O)cc5)c5ccc2[nH]5)C=C4)C=C3)cc1` [Compound 8, 5,10-Bis(4-carboxyphenyl)-15,20-bis(4-dimethylaminophenyl)porphyrin], the inhibition at 1 µM in assay [1] lay within 85 to 95%. Further, the “Effect on CPT-induced preformed Top1cc in plasmid DNA cleavage assay” value in assay [2] (Top1 preincubated with plasmid DNA and CPT before addition of compound, dose dependent) was “completely abrogated CPT-induced Top1cc”. Also, the “Stabilization of Top1cc in plasmid DNA cleavage assay” value in assay [2] (recombinant human Top1 100 fmol, pBS (SK+) DNA, 37 °C, 30 min) is “failed to stabilize Top1cc”. In addition, the PARP cleavage entry in assay [3] is listed as “promotes PARP cleavage”.
